Laboratory results taken from US10485235B2, “Aryloxypyrimidinyl ethers as herbicides” (FMC Corporation, priority 2015, dated 2019).

Tests used:
Type in all cases: in vivo
[1] = test system: pigweed (Amaranthus retroflexus); experiment: Test A postemergence, pigweed; settings: Amaranthus retroflexus, post-emergence, 240 h, postemergence, 0 to 100 scale, 0 is no effect, 100 is complete control, approximately 10 days, read-out: Plant response rating, Pigweed; for pest or weed control at 125 g/ha: 125 g ai/ha; for pest or weed control at 500 g/ha: 500 g ai/ha
Summary of the method: (§1)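 Approximately 10-day greenhouse assay. Formulated chemical (non-phytotoxic solvent plus surfactant) applied preemergence to soil over seeds or postemergence to plants of 2 to 10 cm. Endpoint: visual percent control, 0–100.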

[2] = test system: foxtail, giant (giant foxtail, Setaria faberii); experiment: Test A preemergence, giant foxtail; settings: Setaria faberi, pre-emergence, 240 h, Preemergence, 0 to 100 scale (0 no effect, 100 complete control), read-out: Plant response rating, Foxtail, Giant; for pest or weed control at 125 g/ha: 125 g ai/ha; for pest or weed control at 500 g/ha: 500 g ai/ha
Summary of the method: as §1

[3] = test system: pigweed (Amaranthus retroflexus); experiment: Test A preemergence, pigweed; settings: Amaranthus retroflexus, pre-emergence, 240 h, Preemergence, 0 to 100 scale (0 no effect, 100 complete control), read-out: Plant response rating, Pigweed; for pest or weed control at 125 g/ha: 125 g ai/ha; for pest or weed control at 500 g/ha: 500 g ai/ha
Summary of the method: as §1

kochia (Kochia scoparia) = experiment: Test A postemergence, kochia; settings: Bassia scoparia, post-emergence, 240 h, postemergence, 0 to 100 scale, 0 is no effect, 100 is complete control, approximately 10 days, read-out: Plant response rating, Kochia; for pest or weed control at 125 g/ha: 125 g ai/ha; for pest or weed control at 500 g/ha: 500 g ai/ha
Summary of the method: as §1

[4] = test system: ryegrass, Italian (Italian ryegrass, Lolium multiflorum); experiment: Test A postemergence, Italian ryegrass; settings: Lolium multiflorum, post-emergence, 240 h, postemergence, 0 to 100 scale, 0 is no effect, 100 is complete control, approximately 10 days, read-out: Plant response rating, Ryegrass, Italian; for pest or weed control at 125 g/ha: 125 g ai/ha; for pest or weed control at 500 g/ha: 500 g ai/ha
Summary of the method: as §1

[5] = test system: sedge, umbrella (small-flower umbrella sedge, Cyperus difformis); experiment: Test B flooded paddy test, umbrella sedge; settings: Cyperus difformis; 250 g ai/ha, Flood; visual rating after 13 to 15 days; scale 0 to 100, 0 is no effect, 100 is complete control; read-out: Plant response rating, Sedge, Umbrella
Summary of the method: (§2)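 Visual ratings, 0 = no effect to 100 = complete control, versus controls after 13 to 15 days in greenhouse. Test compounds were added to paddy water kept 3 cm over the soil surface, on plants at 2-leaf stage.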

[6] = test system: barnyardgrass (Echinochloa crus-galli); experiment: Test B flooded paddy test, barnyardgrass; settings: Echinochloa crus-galli; 250 g ai/ha, Flood; visual rating after 13 to 15 days; scale 0 to 100, 0 is no effect, 100 is complete control; read-out: Plant response rating, Barnyardgrass
Summary of the method: as §2

[7] = test system: galium (catchweed bedstraw, Galium aparine); experiment: Test A postemergence, galium; settings: Galium, post-emergence, 240 h, postemergence, 0 to 100 scale, 0 is no effect, 100 is complete control, approximately 10 days, read-out: Plant response rating, Galium; for pest or weed control at 125 g/ha: 125 g ai/ha; for pest or weed control at 500 g/ha: 500 g ai/ha
Summary of the method: as §1

rice (Oryza sativa) = experiment: Test B flooded paddy test, rice; settings: Oryza sativa; 250 g ai/ha, Flood; visual rating after 13 to 15 days; scale 0 to 100, 0 is no effect, 100 is complete control; read-out: Plant response rating, Rice
Summary of the method: as §2

[8] = test system: ragweed (common ragweed, Ambrosia elatior); experiment: Test A postemergence, ragweed; settings: Ambrosia artemisiifolia, post-emergence, 240 h, postemergence, 0 to 100 scale, 0 is no effect, 100 is complete control, approximately 10 days, read-out: Plant response rating, Ragweed; for pest or weed control at 125 g/ha: 125 g ai/ha; for pest or weed control at 500 g/ha: 500 g ai/ha
Summary of the method: as §1

[9] = test system: ragweed (common ragweed, Ambrosia elatior); experiment: Test A preemergence, ragweed; settings: Ambrosia artemisiifolia, pre-emergence, 240 h, Preemergence, 0 to 100 scale (0 no effect, 100 complete control), read-out: Plant response rating, Ragweed; for pest or weed control at 125 g/ha: 125 g ai/ha; for pest or weed control at 500 g/ha: 500 g ai/ha
Summary of the method: as §1

[10] = test system: blackgrass (Alopecurus myosuroides); experiment: Test A postemergence, blackgrass; settings: Alopecurus myosuroides, post-emergence, 240 h, postemergence, 0 to 100 scale, 0 is no effect, 100 is complete control, approximately 10 days, read-out: Plant response rating, Blackgrass; for pest or weed control at 125 g/ha: 125 g ai/ha; for pest or weed control at 500 g/ha: 500 g ai/ha
Summary of the method: as §1

[11] = test system: foxtail, giant (giant foxtail, Setaria faberii); experiment: Test A postemergence, giant foxtail; settings: Setaria faberi, post-emergence, 240 h, postemergence, 0 to 100 scale, 0 is no effect, 100 is complete control, approximately 10 days, read-out: Plant response rating, Foxtail, Giant; for pest or weed control at 125 g/ha: 125 g ai/ha; for pest or weed control at 500 g/ha: 500 g ai/ha
Summary of the method: as §1

[12] = test system: wheat (Triticum aestivum); experiment: Test A postemergence, wheat; settings: Triticum aestivum, post-emergence, 240 h, postemergence, 0 to 100 scale, 0 is no effect, 100 is complete control, approximately 10 days, read-out: Plant response rating, Wheat; for plant injury at 125 g/ha: 125 g ai/ha; for plant injury at 500 g/ha: 500 g ai/ha
Summary of the method: as §1

N#Cc1cccc(Oc2ncc(Cl)cn2)c1OCCC(F)(F)F [Compound 23, 3-[(5-chloro-2-pyrimidinyl)oxy]-2-(3,3,3-trifluoropropoxy)benzonitrile]
50%: pest or weed control at 250 g/ha [6]
90%: pest or weed control at 31 g/ha ([2]; 31 g ai/ha) | pest or weed control at 31 g/ha (kochia (Kochia scoparia); 31 g ai/ha) | pest or weed control at 125 g/ha [7] | pest or weed control at 125 g/ha [9] | pest or weed control at 125 g/ha [11]
40%: pest or weed control at 125 g/ha [4]
30%: plant injury at 250 g/ha (rice (Oryza sativa)) | pest or weed control at 125 g/ha [8]
60%: pest or weed control at 31 g/ha ([7]; 31 g ai/ha)
100%: pest or weed control at 31 g/ha ([1]; 31 g ai/ha) | pest or weed control at 125 g/ha [1] | pest or weed control at 125 g/ha [2] | pest or weed control at 31 g/ha ([3]; 31 g ai/ha) | pest or weed control at 125 g/ha [3] | pest or weed control at 125 g/ha (kochia (Kochia scoparia)) | pest or weed control at 250 g/ha [5]
20%: pest or weed control at 31 g/ha ([4]; 31 g ai/ha) | pest or weed control at 31 g/ha ([10]; 31 g ai/ha) | pest or weed control at 31 g/ha ([11]; 31 g ai/ha) | plant injury at 31 g/ha ([12]; 31 g ai/ha)
70%: pest or weed control at 125 g/ha [10] | plant injury at 125 g/ha [12]
0%: pest or weed control at 31 g/ha ([8]; 31 g ai/ha) | pest or weed control at 31 g/ha ([9]; 31 g ai/ha)

Fc1cccc(Oc2ncc(Cl)cn2)c1OCC(F)(F)F [Compound 28]
20%: pest or weed control at 500 g/ha [7] | pest or weed control at 500 g/ha [10] | pest or weed control at 500 g/ha [11]
100%: pest or weed control at 500 g/ha [3]
30%: pest or weed control at 125 g/ha [1]
0%: pest or weed control at 125 g/ha [2] | pest or weed control at 125 g/ha [3] | pest or weed control at 125 g/ha (kochia (Kochia scoparia)) | pest or weed control at 125 g/ha [4] | pest or weed control at 500 g/ha [4] | pest or weed control at 250 g/ha [5] | pest or weed control at 250 g/ha [6] | pest or weed control at 125 g/ha [7] | plant injury at 250 g/ha (rice (Oryza sativa)) | pest or weed control at 125 g/ha [8] | pest or weed control at 500 g/ha [8] | pest or weed control at 125 g/ha [9] | pest or weed control at 500 g/ha [9] | pest or weed control at 125 g/ha [10] | pest or weed control at 125 g/ha [11] | plant injury at 125 g/ha [12] | plant injury at 500 g/ha [12]
10%: pest or weed control at 500 g/ha (kochia (Kochia scoparia))
70%: pest or weed control at 500 g/ha [1] | pest or weed control at 500 g/ha [2]

CCCCOc1c(C#N)cccc1Oc1ncc(Cl)cn1 [Compound 35, 2-butoxy-3-[(5-chloro-2-pyrimidinyl)oxy]benzonitrile]
20%: pest or weed control at 500 g/ha [8]
100%: pest or weed control at 500 g/ha [1] | pest or weed control at 125 g/ha [2] | pest or weed control at 500 g/ha [2] | pest or weed control at 125 g/ha [3] | pest or weed control at 500 g/ha [3] | pest or weed control at 125 g/ha (kochia (Kochia scoparia)) | pest or weed control at 500 g/ha (kochia (Kochia scoparia)) | pest or weed control at 500 g/ha [7]
0%: plant injury at 250 g/ha (rice (Oryza sativa))
10%: pest or weed control at 125 g/ha [8] | pest or weed control at 125 g/ha [9] | plant injury at 125 g/ha [12]
40%: pest or weed control at 125 g/ha [4] | plant injury at 500 g/ha [12]
30%: pest or weed control at 250 g/ha [6] | pest or weed control at 500 g/ha [9]
70%: pest or weed control at 250 g/ha [5] | pest or weed control at 125 g/ha [10]
90%: pest or weed control at 125 g/ha [1] | pest or weed control at 125 g/ha [7] | pest or weed control at 500 g/ha [10] | pest or weed control at 125 g/ha [11] | pest or weed control at 500 g/ha [11]
80%: pest or weed control at 500 g/ha [4]
